Test results taken from ChEMBL document CHEMBL4312034, “Virtual screening-driven discovery of dual 5-HT6/5-HT2A receptor ligands with pro-cognitive properties” (Eur J Med Chem, 2020).
pIC50, pKi: −log10 of the molar value. Activity calls are given as the source filed them. No cut-off for these calls is given here.

What was measured:
in vitro = conditions: rat
[1] = target: T1, 5-hydroxytryptamine receptor 1A (Homo sapiens, UniProt P08908); assay: Displacement of [3H]-8-OH-DPAT from human 5-HT1A receptor expressed in HEK293 cells after 1 hr by microbeta plate reader analysis; format: cell-based
T1 sequence (P08908 whole entry): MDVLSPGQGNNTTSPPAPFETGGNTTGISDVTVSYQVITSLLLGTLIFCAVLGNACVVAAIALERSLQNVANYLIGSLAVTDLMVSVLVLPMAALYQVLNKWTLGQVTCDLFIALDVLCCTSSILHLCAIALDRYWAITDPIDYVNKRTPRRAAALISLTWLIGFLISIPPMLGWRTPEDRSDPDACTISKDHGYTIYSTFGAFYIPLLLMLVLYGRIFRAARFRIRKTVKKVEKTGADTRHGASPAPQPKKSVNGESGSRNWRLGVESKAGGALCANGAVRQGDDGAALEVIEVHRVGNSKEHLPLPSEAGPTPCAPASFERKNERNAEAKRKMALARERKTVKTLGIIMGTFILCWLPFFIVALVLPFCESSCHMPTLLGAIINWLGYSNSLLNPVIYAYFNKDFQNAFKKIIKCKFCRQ

[2] = target: T2, 5-hydroxytryptamine receptor 2A (Homo sapiens, UniProt P28223); assay: Binding affinity to human 5-HT2AR expressed in HEK293 cells by competitive binding assay; format: cell-based
[3] = target: 5-hydroxytryptamine receptor 7 (Homo sapiens, UniProt P34969); assay: Displacement of [3H]-CT from human 5-HT7 receptor expressed in HEK293 cells after 1 hr by microbeta plate reader analysis; format: cell-based
[4] = Half life in rat liver microsomes up to 60 mins by HPLC-LC/MS analysis
D(2) dopamine receptor = D(2) dopamine receptor (Homo sapiens, UniProt P14416); assay: Displacement of [3H]-raclopride from human D2R expressed in HEK293 cells after 1 hr by microbeta plate reader analysis; format: cell-based
[5] = target: T3, 5-hydroxytryptamine receptor 6 (Homo sapiens, UniProt P50406); assay: Displacement of [3H]-LSD from human 5-HT6R expressed in HEK293 cells after 1 hr by microbeta plate reader analysis; format: cell-based
5-HT2C receptor [6] = target: T4, 5-HT2C receptor (Homo sapiens, UniProt P28335); assay: Inhibition of 5-HT2C receptor (unknown origin) at 10^-6 M relative to control
T4 sequence (P28335 whole entry): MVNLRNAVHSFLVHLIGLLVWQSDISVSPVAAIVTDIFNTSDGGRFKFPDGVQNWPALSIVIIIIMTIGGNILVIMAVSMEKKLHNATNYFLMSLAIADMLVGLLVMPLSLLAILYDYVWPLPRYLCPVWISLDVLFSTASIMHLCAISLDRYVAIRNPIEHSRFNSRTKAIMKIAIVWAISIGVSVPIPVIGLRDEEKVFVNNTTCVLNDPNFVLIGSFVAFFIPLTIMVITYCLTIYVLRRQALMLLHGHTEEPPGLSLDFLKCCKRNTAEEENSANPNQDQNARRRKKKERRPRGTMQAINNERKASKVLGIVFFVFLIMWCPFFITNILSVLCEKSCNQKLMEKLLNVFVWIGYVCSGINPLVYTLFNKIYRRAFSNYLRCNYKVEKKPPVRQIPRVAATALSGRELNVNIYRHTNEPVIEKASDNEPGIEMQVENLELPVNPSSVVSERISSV

5-HT2C receptor [7] = target: T4, 5-HT2C receptor; assay: Antagonist activity at 5-HT2CR (unknown origin) at 10^-6 M relative to control
[8] = target: T5, Muscarinic acetylcholine receptor M1 (Homo sapiens) (UniProt P11229); assay: Displacement of [3H]pyrilamine from recombinant human M1 receptor at 10^-6 M after 60 mins by radiometric scintillation counting analysis relative to control
T5 sequence (whole entry): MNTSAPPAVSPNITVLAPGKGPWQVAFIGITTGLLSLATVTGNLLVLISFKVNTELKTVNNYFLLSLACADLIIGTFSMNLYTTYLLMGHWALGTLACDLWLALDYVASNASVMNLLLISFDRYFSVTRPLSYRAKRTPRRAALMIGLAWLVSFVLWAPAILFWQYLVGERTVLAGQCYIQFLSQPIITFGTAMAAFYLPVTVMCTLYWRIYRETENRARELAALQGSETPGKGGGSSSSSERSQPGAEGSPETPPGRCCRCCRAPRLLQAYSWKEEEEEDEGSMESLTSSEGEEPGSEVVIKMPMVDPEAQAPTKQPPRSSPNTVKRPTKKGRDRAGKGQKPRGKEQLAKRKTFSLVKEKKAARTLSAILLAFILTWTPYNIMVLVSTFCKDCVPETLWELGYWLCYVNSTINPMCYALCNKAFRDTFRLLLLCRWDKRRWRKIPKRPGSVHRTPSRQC

hERG (KCNH2) = hERG (KCNH2) (Homo sapiens, UniProt Q12809); assay: Inhibition of human ERG at 10^-6 M relative to control
[9] = target: 5-hydroxytryptamine receptor 2B (Homo sapiens) (UniProt P41595); assay: Displacement of [3H]-Mesulergine from recombinant human 5-HT2B receptor at 10^-6 M after 60 mins by radiometric scintillation analysis relative to control
[10] = Mutagenicity in Salmonella typhimurium TA100 at 1 to 10 uM incubated for 90 mins followed by replating on medium without histidine and measured after 72 hrs by Ames test; format: toxicity; conditions: salmonella enterica subsp. enterica serovar typhimurium
[11] = target: T2, 5-hydroxytryptamine receptor 2A; assay: Displacement of [3H]-Ketanserin from recombinant human 5-HT2A receptor at 10^-7 M after 60 mins by radiometric scintillation counting analysis relative to control
HepG2 [12] = assay: Cytotoxicity against human HepG2 cells assessed as reduction in cell viability after 24 hrs by presto-blue assay; conditions: HepG2, 24 h
P-gp (ABCB1) [13] = target: T6, P-gp (ABCB1) (Homo sapiens, UniProt P08183); assay: Substrate activity at Pgp (unknown origin) assessed as permeability from apical to basolateral side by cell based assay; format: ADME; conditions: not told
[14] = target: T3, 5-hydroxytryptamine receptor 6; assay: Antagonist activity at human 5-HT6 receptor expressed in HEK293 cells assessed as inhibition of 5-CT induced cAMP production incubated for 30 mins by TR-FRET assay; format: functional, cell-based
Cytochrome P450 2D6 = Cytochrome P450 2D6 (Homo sapiens, UniProt P10635); assay: Inhibition of human CYP2D6 preincubated for 5 mins followed by NADPH addition and measured after 45 mins by luminescence based microplate reader analysis; format: ADME
HepG2 [15] = assay: Cytotoxicity against human HepG2 cells after 24 hrs by ToxiLight bioassay; conditions: HepG2, 24 h
P-gp (ABCB1) [16] = target: T6, P-gp (ABCB1); assay: Substrate activity at Pgp (unknown origin) assessed as permeability from basolateral to apical side by cell based assay; format: ADME; conditions: not told
[17] = target: T2, 5-hydroxytryptamine receptor 2A; assay: Displacement of [3H]-Ketanserin from recombinant human 5-HT2A receptor at 10^-6 M after 60 mins by radiometric scintillation counting analysis relative to control
Rattus norvegicus = assay: Reversal of phencyclidine-induced memory impairment in Sprague-Dawley rat at 3 to 10 mg/kg, po for 2 hrs followed by phencyclidine treatment 45 mins prior to testing by novel object recognition test; format: functional, organism-based
[18] = target: T7, Alpha-1A adrenergic receptor (Homo sapiens) (UniProt P35348); assay: Displacement of [3H]prazosin from recombinant human alpha 1A adreno receptor at 10^-6 M after 60 mins by radiometric scintillation counting analysis relative to control
T7 sequence (whole entry): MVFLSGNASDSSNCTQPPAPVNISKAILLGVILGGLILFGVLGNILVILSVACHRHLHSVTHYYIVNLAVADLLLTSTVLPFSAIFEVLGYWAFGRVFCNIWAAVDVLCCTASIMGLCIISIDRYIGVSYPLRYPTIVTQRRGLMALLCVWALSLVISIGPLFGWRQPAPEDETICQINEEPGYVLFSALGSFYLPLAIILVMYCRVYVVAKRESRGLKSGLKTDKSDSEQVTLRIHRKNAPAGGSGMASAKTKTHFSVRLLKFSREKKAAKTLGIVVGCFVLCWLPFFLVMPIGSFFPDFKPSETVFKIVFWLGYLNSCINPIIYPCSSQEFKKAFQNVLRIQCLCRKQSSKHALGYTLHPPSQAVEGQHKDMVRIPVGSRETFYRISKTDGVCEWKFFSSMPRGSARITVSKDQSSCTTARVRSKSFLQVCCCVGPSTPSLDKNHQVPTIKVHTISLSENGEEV

Cytochrome P450 3A4 = Cytochrome P450 3A4 (Homo sapiens, UniProt P08684); assay: Inhibition of human CYP3A4 preincubated for 5 mins followed by NADPH addition and measured after 30 mins by luminescence based microplate reader analysis; format: ADME
[19] = target: Histamine H1 receptor (Homo sapiens) (UniProt P35367); assay: Displacement of [3H]pyrilamine from recombinant human H1 receptor at 10^-6 M after 60 mins by radiometric scintillation counting analysis relative to control
[20] = Ratio of Cmax in brain to plasma in Wistar rat at 10 mg/kg, po; format: ADME, organism-based; conditions: read-out: BPR

T2 sequence (P28223 whole entry): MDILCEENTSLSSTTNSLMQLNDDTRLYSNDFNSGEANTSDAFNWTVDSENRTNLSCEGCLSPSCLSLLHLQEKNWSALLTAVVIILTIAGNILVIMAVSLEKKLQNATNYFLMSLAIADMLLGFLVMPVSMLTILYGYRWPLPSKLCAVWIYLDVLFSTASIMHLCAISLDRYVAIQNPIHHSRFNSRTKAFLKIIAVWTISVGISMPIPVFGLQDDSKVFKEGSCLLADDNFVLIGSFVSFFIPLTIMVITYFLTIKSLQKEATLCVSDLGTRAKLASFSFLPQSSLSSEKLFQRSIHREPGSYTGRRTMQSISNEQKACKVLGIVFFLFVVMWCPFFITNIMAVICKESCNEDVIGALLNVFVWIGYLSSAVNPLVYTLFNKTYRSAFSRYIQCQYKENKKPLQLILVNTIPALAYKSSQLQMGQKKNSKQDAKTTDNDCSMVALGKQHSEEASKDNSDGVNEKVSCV
T3 sequence (P50406 whole entry): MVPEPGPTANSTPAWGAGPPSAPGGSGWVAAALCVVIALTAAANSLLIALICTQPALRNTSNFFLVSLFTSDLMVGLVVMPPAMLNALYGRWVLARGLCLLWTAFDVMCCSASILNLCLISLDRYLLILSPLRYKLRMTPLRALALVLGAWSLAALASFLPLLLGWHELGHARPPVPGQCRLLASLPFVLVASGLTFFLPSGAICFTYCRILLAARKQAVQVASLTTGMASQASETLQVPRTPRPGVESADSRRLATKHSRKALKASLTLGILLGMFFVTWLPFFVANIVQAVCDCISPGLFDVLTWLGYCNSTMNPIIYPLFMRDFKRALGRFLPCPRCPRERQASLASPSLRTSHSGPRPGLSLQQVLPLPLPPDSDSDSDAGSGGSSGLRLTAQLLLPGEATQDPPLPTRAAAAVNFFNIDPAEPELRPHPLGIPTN
5-hydroxytryptamine receptor 7, sequence (P34969 whole entry): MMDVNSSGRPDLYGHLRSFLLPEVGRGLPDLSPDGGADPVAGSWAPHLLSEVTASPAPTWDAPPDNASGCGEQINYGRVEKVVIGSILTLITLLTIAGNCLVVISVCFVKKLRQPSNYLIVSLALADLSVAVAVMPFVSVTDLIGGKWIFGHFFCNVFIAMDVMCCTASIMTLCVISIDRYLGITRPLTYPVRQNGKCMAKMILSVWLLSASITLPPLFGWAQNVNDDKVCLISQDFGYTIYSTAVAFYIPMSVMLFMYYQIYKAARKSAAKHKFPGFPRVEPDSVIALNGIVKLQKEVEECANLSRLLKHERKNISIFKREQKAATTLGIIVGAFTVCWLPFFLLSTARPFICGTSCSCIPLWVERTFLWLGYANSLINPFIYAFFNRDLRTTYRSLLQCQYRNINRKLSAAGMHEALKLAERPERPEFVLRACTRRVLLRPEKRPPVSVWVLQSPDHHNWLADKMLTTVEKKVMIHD
T6 sequence (P08183 whole entry): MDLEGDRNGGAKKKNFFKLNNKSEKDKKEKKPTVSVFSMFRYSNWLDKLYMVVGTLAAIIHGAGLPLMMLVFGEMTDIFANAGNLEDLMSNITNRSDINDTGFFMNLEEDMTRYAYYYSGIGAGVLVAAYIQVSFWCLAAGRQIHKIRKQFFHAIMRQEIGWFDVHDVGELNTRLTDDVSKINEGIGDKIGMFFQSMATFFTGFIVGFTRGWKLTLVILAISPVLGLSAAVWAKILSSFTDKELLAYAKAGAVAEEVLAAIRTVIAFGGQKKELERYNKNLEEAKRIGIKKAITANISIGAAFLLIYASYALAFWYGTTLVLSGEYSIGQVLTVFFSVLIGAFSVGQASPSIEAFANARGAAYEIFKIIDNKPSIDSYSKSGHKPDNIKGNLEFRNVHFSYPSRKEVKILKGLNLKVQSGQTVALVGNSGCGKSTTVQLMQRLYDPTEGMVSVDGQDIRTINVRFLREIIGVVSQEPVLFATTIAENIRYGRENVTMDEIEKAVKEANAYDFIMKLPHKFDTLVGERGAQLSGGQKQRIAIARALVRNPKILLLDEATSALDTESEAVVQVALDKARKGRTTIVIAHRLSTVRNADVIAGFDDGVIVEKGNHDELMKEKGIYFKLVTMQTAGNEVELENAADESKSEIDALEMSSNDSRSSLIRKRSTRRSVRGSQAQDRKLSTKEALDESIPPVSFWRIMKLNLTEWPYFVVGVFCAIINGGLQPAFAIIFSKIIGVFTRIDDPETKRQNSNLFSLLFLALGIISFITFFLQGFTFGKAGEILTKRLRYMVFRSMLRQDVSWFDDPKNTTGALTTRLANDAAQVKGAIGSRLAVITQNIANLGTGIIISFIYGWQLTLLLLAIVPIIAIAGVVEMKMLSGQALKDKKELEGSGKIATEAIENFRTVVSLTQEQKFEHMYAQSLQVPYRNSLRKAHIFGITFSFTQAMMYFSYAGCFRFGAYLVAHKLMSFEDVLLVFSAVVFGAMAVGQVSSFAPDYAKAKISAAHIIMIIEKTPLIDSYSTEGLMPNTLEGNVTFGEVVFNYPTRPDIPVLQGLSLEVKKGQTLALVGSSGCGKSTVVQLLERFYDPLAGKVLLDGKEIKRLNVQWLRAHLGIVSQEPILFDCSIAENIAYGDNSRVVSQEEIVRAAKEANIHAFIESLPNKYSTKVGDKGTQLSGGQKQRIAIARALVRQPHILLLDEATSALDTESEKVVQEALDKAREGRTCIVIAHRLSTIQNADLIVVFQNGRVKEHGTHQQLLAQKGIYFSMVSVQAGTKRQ
Cytochrome P450 3A4, sequence (P08684 whole entry): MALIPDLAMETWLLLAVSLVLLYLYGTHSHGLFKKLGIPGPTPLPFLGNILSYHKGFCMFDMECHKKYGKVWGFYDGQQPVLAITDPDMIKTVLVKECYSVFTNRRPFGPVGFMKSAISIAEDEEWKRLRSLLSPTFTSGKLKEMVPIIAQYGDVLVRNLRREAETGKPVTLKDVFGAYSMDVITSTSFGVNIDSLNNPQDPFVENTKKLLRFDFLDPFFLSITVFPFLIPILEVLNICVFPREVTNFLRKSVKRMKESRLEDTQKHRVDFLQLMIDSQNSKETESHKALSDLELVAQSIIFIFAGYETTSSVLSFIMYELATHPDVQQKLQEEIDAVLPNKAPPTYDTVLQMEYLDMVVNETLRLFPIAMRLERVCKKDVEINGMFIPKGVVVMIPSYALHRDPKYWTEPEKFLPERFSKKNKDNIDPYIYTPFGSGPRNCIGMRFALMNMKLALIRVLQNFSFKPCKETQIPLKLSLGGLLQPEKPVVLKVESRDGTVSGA
D(2) dopamine receptor, sequence (P14416 whole entry): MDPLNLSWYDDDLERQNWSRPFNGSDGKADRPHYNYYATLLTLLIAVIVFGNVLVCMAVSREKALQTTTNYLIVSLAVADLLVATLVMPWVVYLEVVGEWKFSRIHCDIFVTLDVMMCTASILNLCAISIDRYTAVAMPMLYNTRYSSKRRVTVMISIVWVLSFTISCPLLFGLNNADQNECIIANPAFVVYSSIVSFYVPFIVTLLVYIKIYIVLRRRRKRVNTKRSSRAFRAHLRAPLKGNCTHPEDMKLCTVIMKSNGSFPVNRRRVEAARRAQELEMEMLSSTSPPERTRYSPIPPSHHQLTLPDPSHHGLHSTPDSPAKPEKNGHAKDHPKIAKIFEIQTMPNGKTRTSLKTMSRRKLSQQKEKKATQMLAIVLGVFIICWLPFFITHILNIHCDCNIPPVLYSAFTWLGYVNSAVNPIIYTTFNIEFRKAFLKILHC
Histamine H1 receptor (Homo sapiens), sequence (P35367 whole entry): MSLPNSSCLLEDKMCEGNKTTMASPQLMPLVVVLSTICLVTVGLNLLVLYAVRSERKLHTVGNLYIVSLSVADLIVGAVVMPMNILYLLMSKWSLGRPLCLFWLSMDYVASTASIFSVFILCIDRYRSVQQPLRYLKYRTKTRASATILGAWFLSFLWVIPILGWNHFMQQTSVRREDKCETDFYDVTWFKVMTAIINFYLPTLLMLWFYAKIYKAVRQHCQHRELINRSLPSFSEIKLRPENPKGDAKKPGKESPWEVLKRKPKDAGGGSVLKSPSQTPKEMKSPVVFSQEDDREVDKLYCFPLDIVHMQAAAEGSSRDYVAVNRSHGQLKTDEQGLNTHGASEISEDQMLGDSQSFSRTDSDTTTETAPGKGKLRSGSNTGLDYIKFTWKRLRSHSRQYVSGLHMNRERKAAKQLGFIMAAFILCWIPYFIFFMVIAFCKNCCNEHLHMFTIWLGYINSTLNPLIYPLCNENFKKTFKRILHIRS
Cytochrome P450 2D6, sequence (P10635 whole entry): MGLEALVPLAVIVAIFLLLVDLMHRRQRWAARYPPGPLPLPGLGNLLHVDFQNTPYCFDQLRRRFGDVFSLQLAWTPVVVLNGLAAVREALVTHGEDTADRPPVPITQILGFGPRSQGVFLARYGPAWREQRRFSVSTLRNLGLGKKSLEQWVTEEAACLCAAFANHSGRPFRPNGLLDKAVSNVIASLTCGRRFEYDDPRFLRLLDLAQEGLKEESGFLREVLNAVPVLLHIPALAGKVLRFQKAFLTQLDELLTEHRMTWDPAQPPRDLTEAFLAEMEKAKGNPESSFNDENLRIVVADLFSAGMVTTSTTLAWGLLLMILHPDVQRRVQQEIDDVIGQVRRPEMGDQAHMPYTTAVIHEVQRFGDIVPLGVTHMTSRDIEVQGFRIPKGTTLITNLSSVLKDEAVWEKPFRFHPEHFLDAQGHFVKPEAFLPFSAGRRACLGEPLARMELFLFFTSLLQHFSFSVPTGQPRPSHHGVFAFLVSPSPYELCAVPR

Oc1ccc(-c2ccc(CNCCc3c[nH]c4ccc(F)cc34)o2)cc1
microsomal CLint at 1 h (in vitro; microsomes): 251 µL/min/mg
pKi [1]: 6.00
pKi [2]: 7.96
pKi [3]: 6.05
half-life at 1 h ([4]; microsomes): 6 min
pKi (D(2) dopamine receptor): 6.42
pKi [5]: 8.70
inhibition at 1 µM (5-HT2C receptor [6]): 99%

Oc1ccc(-c2ccc(CNCCc3c[nH]c4ncc(F)cc34)o2)cc1
inhibition at 1 µM (5-HT2C receptor [7]): 59.9%
microsomal CLint at 1 h (in vitro; liver microsomes): 103 µL/min/mg
inhibition [8]: 4%
inhibition at 1 µM (hERG (KCNH2)): 42.2%
inhibition [9]: -1.3%
pKi [1]: 5.21
Activity [10]: Non-Toxic
inhibition [11]: 19.1%
pIC50 (HepG2 [12]): 5.29
Papp A→B (P-gp (ABCB1) [13]): 8.87 ×10⁻⁶ cm/s
pKi [2]: 7.49
Kb [14]: 27 nM
pKi [3]: 4.86
half-life at 1 h ([4]; liver microsomes): 14 min
pIC50 (Cytochrome P450 2D6): 5.08
pIC50 (HepG2 [15]): 5.21
Papp B→A (P-gp (ABCB1) [16]): 3.43 ×10⁻⁶ cm/s
inhibition [17]: 8.9%
Activity (Rattus norvegicus): Active
inhibition [18]: 35.5%
pKi [5]: 7.60
pIC50 (Cytochrome P450 3A4): 5.11
inhibition [19]: 3.2%
Kp [20]: 0.7
